Measured values as given in paper PMC6382696, “Drug Repurposing: The Anthelmintics Niclosamide and Nitazoxanide Are Potent TMEM16A Antagonists That Fully Bronchodilate Airways” (Frontiers in Pharmacology, 2019).

system: human bronchial smooth muscle cells; assay: Histamine-induced depolarization of human bronchial smooth muscle cells (FLIPR membrane potential); assay type: cell-based; conditions: read-out: Histamine Depolarization of ASM Cells (IC50)
Method: Cultured human bronchial smooth muscle cells (BSMC) from Lonza were resuspended in Smooth Muscle Growth Medium-2 (SmGM-2; Lonza) at a concentration of 4 × 10^5 cells per ml. One hundred microliters of cells per well were plated in a black wall clear bottom polystyrene 96-well tissue culture plate and incubated in a 37°C humidified incubator with 5% CO2 overnight. Cells were serum starved by removing the SmGM-2 and replaced with one hundred microliters per well of Smooth Muscle Cell Basal Medium 2 (SmBM-2), phenol red-free (PromoCell), and incubated in a 37°C humidified incubator with 5% CO2 for 24 h. SmBM-2 was replaced with 100 microliters of fresh SmBM-2. Compounds were dissolved in 100% DMSO and serially diluted ½ log in a polypropylene 96-well microtiter plate (drug plate). Columns 6 and 12 were reserved as controls (HI control and LO control respectively) and contained only DMSO. Serially diluted compounds were diluted in SmBM-2 to 10X the final concentration. Twenty-five microliters of 10X compound titrations, and one hundred microliters of Blue dye-loading buffer (FLIPR Membrane Potential Assay Kit; Molecular Devices) were added to the cells. Cells were pre-incubated at room temperature with compound for 0.5 h. Five micromolar (10X) histamine was prepared in SmBM-2. Using the FLIPR-Tetra (Molecular Devices), three measurements of the baseline fluorescence were taken over the span of 1 min. Twenty-five microliters per well of 10X histamine were added to the first 11 columns of the plate containing the compound treated cells. Twenty-five microliters of SmBM-2 were added to column 12 for the LO control. Fifty-five fluorescence measurements were taken over the span of 14 min. The area under the curve (AUC) from the fluorescence kinetic traces (normalized to baseline fluorescence) were calculated. The amount of fluorescence in the presence of compound compared with that in the presence of DMSO vehicle alone (HI control) was calculated using the formula: % control (POC) = (compd – average LO)/(average HI – average LO)^∗100.

Row | Structure (SMILES) | IC50 [µM]
1 | N#Cc1c(C(F)(F)F)cc(O)n2c1nc1ccccc12 [1PBC] | 0.964 ± 0.756
2 | CCc1oc2ccccc2c1C(=O)c1cc(Br)c(O)c(Br)c1 [Benzbromarone] | 0.208 ± 0.248
3 | CC(C)(C)C1CCc2c(sc(NC(=O)c3ccco3)c2C(=O)O)C1 (stereo not drawn) [CaCCinh-A01] | 4.76 ± 1.23
4 | O=C(Nc1ccc([N+](=O)[O-])cc1)c1cc(Cl)ccc1O [Cpd 2] | 0.044
5 | O=C(Nc1ccc([N+](=O)[O-])cc1)c1cc(Cl)c2ccccc2c1O [Cpd 3] | 0.017
6 | COc1cc([N+](=O)[O-])ccc1NC(=O)c1cc(Cl)c2ccccc2c1O [Cpd 4] | 0.178 ± 0.007
7 | O=C(Nc1ccc(Cl)cc1)c1cc(Cl)ccc1O [Cpd 5] | 0.071 ± 0.02
8 | Oc1ccc(Cl)cc1Cc1cc(Cl)ccc1O [Dichlorophen] | 0.938 ± 0.36
9 | COc1cc(Nc2ccc([N+](=O)[O-])cc2C(=O)O)cc2ccccc12 [MONNA] | 0.201 ± 0.162
10 | O=C(Nc1ncc([N+](=O)[O-])s1)c1cccs1 [NTTP] | 25.2 ± 5.45
11 | O=C(Nc1ccc([N+](=O)[O-])cc1Cl)c1cc(Cl)ccc1O [Niclosamide] | 0.389 ± 0.478
12 | O=C(O)c1cccnc1Nc1cccc(C(F)(F)F)c1 [Niflumic Acid] | 6.29 ± 1.59
13 | CCc1c(C)nc(SCC(=O)Nc2nc(-c3ccc(OC)cc3)cs2)[nH]c1=O [T16Ainh-A01] | > 30

target: T1, TMEM16A (acd) (Homo sapiens, UniProt Q5XXA6); assay: QPatch whole-cell electrophysiology, HEK293 TMEM16A (acd); assay type: cell-based; conditions: 170 nM free calcium, Vhold 0 mV
T1 sequence (Q5XXA6 1-986): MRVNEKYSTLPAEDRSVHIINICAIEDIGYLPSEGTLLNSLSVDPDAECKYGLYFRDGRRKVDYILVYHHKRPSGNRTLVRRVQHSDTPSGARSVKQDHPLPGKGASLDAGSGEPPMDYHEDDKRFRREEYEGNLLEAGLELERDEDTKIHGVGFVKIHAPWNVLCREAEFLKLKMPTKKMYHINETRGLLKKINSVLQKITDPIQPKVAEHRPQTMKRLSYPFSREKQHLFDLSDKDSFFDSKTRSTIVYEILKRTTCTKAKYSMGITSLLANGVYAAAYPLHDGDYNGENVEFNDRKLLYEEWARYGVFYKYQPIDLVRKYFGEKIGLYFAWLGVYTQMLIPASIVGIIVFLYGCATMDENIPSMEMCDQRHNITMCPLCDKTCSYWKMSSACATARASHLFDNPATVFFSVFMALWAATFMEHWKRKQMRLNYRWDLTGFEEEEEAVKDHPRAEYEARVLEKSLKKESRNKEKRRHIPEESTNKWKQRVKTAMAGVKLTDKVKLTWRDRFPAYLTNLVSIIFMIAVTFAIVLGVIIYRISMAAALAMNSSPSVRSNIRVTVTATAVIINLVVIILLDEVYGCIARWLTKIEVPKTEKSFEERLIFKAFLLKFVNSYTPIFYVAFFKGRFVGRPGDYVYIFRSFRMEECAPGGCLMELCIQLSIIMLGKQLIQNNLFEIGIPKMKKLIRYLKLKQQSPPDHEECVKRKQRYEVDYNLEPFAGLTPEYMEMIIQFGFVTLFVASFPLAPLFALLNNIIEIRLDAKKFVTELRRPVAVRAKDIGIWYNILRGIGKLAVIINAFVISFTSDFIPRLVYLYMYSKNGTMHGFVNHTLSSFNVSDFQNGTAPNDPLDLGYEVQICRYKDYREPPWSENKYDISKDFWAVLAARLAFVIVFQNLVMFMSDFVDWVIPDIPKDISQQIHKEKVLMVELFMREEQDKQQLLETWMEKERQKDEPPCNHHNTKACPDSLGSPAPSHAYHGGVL
From the text: HEK293 cells stably expressing the TMEM16A (acd) variant were purchased from SB Drug Discovery. The HEK293 TMEM16A (abc) stable cell line was from ChanTest and COLO-205 cells were purchased from ATCC. The same standard buffers and recording conditions listed below were used for QPatch studies on all three cell lines.
Recording Solutions: were made weekly as below and stored at room temperature until used. It is recommended not to add ATP to internal solution until immediately before using on the QPatch. The external buffer (in mM) was 140 NaCl, 4 KCl, 2 CaCl2, 1 MgCl2, 10 HEPES, 10 Glucose, pH7.4, while the internal buffer (in mM) was 110 CsCl, 20 TEA-Cl, 5.374 CaCl2, 1.75 MgCl2, 10 EGTA, 10 HEPES, 4 Na2ATP, pH 7.2.
Once established in whole-cell configuration, cells were clamped to a holding potential (Vhold) of 0 mV on 48 well single hole patch plate. A standardized IV protocol was used to elicit ionic current through the TMEM16A chloride channel at 20 s intervals. Steady-state voltage pulses were from −100 mV to +100 mV in +20 mV steps for a duration of 500 ms. After each pulse the voltage was returned to −100 mV for 50 ms to obtain tail currents, and then returned to the holding potential of 0 mV until the beginning of the next sweep. […] This ensures a minimum of 60 s per concentration incubation before measuring current block. Currents were acquired at 10 kHz and filtered at 2 kHz, leak subtraction and Rseries were disabled. A 1 MΩ minimum resistance was set because cells are held in an open channel state and therefore resistance is low.
A cumulative concentration response was measured where each cell is exposed to five concentrations of test article with a dilution factor of 1:5 (e.g., 0.048, 0.24, 1.2, 6, and 30 μM). Cells were recorded for ∼60 s per solution/compound addition. Initially, external solution is applied twice to allow currents to stabilize. Then vehicle (from the saline reservoir) is added twice to monitor any effect 0.3% DMSO might have on currents. This leads directly into the concentration runs by applying Concentration 1 (single addition) for 1 min. Concentration 2 is then applied for the subsequent minute, etc. Recovery/washout was monitored for a final minute with a final external solution addition.
[…] […] Each cell’s current magnitude was then normalized to itself at the initial 0.3% vehicle control period prior to compound application. This step is to account for differences in current size for each cell. Normalized responses to test article were plotted against their concentrations to reveal a concentration-inhibition plot.
A Normalized Group Hill fit was then performed on the plotted results to yield a pooled IC50 value, reconstructed from a minimum of two cells/concentration. The baseline response as well as the full response were constrained to 1 and 0, respectively.

Row | Structure (SMILES) | effect on inward current at −100 mV, whole cell patch clamp
14 | N#Cc1c(C(F)(F)F)cc(O)n2c1nc1ccccc12 [1PBC] | paradoxical increase
15 | CCc1oc2ccccc2c1C(=O)c1cc(Br)c(O)c(Br)c1 [Benzbromarone] | inhibited
16 | O=C(Nc1ccc([N+](=O)[O-])cc1)c1cc(Cl)c2ccccc2c1O [Cpd 3] | no significant effect
17 | COc1cc([N+](=O)[O-])ccc1NC(=O)c1cc(Cl)c2ccccc2c1O [Cpd 4] | no significant effect
18 | COc1cc(Nc2ccc([N+](=O)[O-])cc2C(=O)O)cc2ccccc12 [MONNA] | inhibited
19 | O=C(Nc1ccc([N+](=O)[O-])cc1Cl)c1cc(Cl)ccc1O [Niclosamide] | paradoxical increase
20 | O=C(O)c1cccnc1Nc1cccc(C(F)(F)F)c1 [Niflumic Acid] | stimulating

same assay, conditions: 1.11 μM, single concentration

Row | Structure (SMILES) | time to achieve steady state block
21 | O=C(Nc1ccc([N+](=O)[O-])cc1Cl)c1cc(Cl)ccc1O [Niclosamide] | about 10 min

same assay, conditions: 3.3 μM, single concentration

Row | Structure (SMILES) | time to achieve steady state block
22 | O=C(Nc1ccc([N+](=O)[O-])cc1Cl)c1cc(Cl)ccc1O [Niclosamide] | approximately 4 min

same assay, conditions: QPatch, outward current at +100 mV, 170 nM free intracellular calcium, ~60 s per concentration; read-out: TMEM16A Chloride Current (IC50)

Row | Structure (SMILES) | IC50 [µM]
23 | N#Cc1c(C(F)(F)F)cc(O)n2c1nc1ccccc12 [1PBC] | 2.81 ± 1.25
24 | CCc1oc2ccccc2c1C(=O)c1cc(Br)c(O)c(Br)c1 [Benzbromarone] | 4.09 ± 2.08
25 | O=C(Nc1ccc([N+](=O)[O-])cc1)c1cc(Cl)c2ccccc2c1O [Cpd 3] | 0.61 ± 0.62
26 | COc1cc([N+](=O)[O-])ccc1NC(=O)c1cc(Cl)c2ccccc2c1O [Cpd 4] | 0.62 ± 0.37
27 | O=C(Nc1ccc(Cl)cc1)c1cc(Cl)ccc1O [Cpd 5] | 2.26 ± 0.65
28 | Oc1ccc(Cl)cc1Cc1cc(Cl)ccc1O [Dichlorophen] | 4.66 ± 2.2
29 | COc1cc(Nc2ccc([N+](=O)[O-])cc2C(=O)O)cc2ccccc12 [MONNA] | 13.6 ± 9.76
30 | O=C(Nc1ncc([N+](=O)[O-])s1)c1cccs1 [NTTP] | 4.69
31 | O=C(Nc1ccc([N+](=O)[O-])cc1Cl)c1cc(Cl)ccc1O [Niclosamide] | 2.37 ± 2.11
32 | O=C(O)c1cccnc1Nc1cccc(C(F)(F)F)c1 [Niflumic Acid] | 8.54 ± 6.75
33 | CCc1c(C)nc(SCC(=O)Nc2nc(-c3ccc(OC)cc3)cs2)[nH]c1=O [T16Ainh-A01] | > 30
34 | O=C(Nc1ncc([N+](=O)[O-])s1)c1ccccc1O [Tizoxanide] | 4.42 ± 2.4

same assay, conditions: maximum antagonist activity, QPatch

Row | Structure (SMILES) | calcium-activated chloride current inhibited
35 | N#Cc1c(C(F)(F)F)cc(O)n2c1nc1ccccc12 [1PBC] | Over 80%
36 | O=C(Nc1ccc([N+](=O)[O-])cc1Cl)c1cc(Cl)ccc1O [Niclosamide] | Over 80%
